According to US11292760B2, “Therapeutic acrylates as enhanced medical adhesives” (Carnegie Mellon University, priority 2016, dated 2022):

Tests used:
[1] = Solubility of TMA monomer in adhesive monomers; format: physicochemical
[2] = Time-lapse 1H NMR of hydrolysis after exposure to D2O; format: physicochemical; details: monomer dissolved in CDCl3, 1H NMR
Experimental: […] One drop of deuterium oxide (D2O, EMD Millipore) was then added and the sample inverted gently once to mix. Spectra were recorded immediately, then periodically for the next two hours.

Structure (SMILES)	solubility in methyl methacrylate monomer ([1]; commercial formulation)	solubility in n-butyl cyanoacrylate ([1]; commercial formulation)	time course of anhydride bond hydrolysis after exposure to D2O [2]	solubility in BCA monomer ([1]; 25% TMA by weight in the adhesive, preliminary formulation tests)
C=C(C)C(=O)OC(=O)C(C)c1ccc(CC(C)C)cc1 (stereo not shown) [IbuMA, Ibuprofen Methacrylic Anhydride]	soluble	soluble	90 min	–
C=C(C)C(=O)Nc1ccc(C(=O)OCC)cc1 [BenzMA, Benzocaine Methacrylamide]	–	–	–	excellent solubility
